Measured values taken from paper PMC6576746, “Rational discovery of dual-indication multi-target PDE/Kinase inhibitor for precision anti-cancer therapy using structural systems pharmacology” (PLoS Computational Biology, 2019).

Legend:
Test in all cases: biochemical
Parameters in all cases: DiscoverX KinomeScan competition binding assay across human kinases; per cent of control at 10 and 100 uM
MAP3K4 = MAP3K4 (Homo sapiens, UniProt Q9Y6R4); conditions: competition binding, % of control; read-out: Percent Control (100 uM Levosimendan)
In short: (§1)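 KinomeScan competition binding was run across a human kinase panel at 10 μM and 100 μM levosimendan. Results are %control = (test − positive control)/(negative control − positive control) × 100.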

DMPK2 = target: T1, DMPK2 (Homo sapiens, UniProt Q6DT37); conditions: competition binding, % of control; read-out: Percent Control (100 uM Levosimendan)
T1 construct: gene CDC42BPG
In short: as §1

TRPM6 = TRPM6 (Homo sapiens, UniProt Q9BX84); conditions: competition binding, % of control; read-out: Percent Control (100 uM Levosimendan)
In short: as §1

JNK2 = target: T2, JNK2 (Homo sapiens, UniProt P45984); conditions: competition binding, % of control; read-out: Percent Control (100 uM Levosimendan)
T2 construct: gene MAPK9
In short: as §1

ADCK3 = target: T3, ADCK3 (Homo sapiens, UniProt Q8NI60); conditions: competition binding, % of control; read-out: Percent Control (100 uM Levosimendan)
T3 construct: gene COQ8A
T3 sequence (Q8NI60 whole entry): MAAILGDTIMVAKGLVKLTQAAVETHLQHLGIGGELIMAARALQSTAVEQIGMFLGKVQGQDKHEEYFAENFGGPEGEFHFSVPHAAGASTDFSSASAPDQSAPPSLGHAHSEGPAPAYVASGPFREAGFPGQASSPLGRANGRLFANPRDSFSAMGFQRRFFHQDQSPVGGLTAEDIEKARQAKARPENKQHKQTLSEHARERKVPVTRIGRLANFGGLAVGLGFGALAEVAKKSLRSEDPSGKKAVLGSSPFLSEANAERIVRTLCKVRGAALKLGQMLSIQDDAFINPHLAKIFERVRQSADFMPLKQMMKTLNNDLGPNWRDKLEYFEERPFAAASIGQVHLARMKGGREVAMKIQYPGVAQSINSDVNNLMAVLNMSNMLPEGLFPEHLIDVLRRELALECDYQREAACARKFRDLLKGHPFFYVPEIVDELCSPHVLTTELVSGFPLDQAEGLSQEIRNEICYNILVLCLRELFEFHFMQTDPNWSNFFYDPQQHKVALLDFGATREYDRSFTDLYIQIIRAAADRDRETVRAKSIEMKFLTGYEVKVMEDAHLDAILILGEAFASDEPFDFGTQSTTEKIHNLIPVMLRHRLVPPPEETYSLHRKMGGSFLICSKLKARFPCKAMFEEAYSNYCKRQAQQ
In short: as §1

EPHA5 = EPHA5 (Homo sapiens, UniProt P54756); conditions: competition binding, % of control; read-out: Percent Control (100 uM Levosimendan)
Sequence of EPHA5 (P54756 whole entry): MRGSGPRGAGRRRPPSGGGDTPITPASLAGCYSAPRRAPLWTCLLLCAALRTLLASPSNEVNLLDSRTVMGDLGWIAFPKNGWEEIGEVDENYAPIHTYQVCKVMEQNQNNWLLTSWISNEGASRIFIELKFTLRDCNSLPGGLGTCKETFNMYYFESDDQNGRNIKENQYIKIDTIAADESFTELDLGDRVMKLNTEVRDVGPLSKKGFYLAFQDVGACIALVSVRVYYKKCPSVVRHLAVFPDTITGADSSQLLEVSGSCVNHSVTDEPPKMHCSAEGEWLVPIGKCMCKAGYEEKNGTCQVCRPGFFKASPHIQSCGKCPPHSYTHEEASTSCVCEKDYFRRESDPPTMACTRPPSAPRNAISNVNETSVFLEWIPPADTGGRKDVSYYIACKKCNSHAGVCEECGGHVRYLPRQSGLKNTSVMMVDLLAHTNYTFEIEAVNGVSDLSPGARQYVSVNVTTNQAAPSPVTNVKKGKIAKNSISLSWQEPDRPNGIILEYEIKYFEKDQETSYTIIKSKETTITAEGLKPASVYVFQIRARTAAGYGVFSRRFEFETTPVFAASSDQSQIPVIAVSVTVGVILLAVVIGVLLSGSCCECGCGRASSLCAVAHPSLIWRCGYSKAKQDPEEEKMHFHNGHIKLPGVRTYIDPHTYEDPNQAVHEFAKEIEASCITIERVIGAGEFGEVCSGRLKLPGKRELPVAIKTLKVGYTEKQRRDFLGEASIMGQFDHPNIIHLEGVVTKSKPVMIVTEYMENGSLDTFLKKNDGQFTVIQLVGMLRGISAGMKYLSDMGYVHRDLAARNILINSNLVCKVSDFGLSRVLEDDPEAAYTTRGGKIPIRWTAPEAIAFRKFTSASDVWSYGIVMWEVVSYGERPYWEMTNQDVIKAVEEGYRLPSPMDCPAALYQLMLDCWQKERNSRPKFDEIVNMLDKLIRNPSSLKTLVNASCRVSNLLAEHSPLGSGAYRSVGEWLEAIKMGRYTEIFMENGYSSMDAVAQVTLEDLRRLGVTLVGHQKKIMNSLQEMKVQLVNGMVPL
In short: as §1

[1] = target: T4, ABL1(F317I)-nonphosphorylated (Homo sapiens, UniProt P00519, F317I); conditions: competition binding, % of control; read-out: Percent Control (100 uM Levosimendan)
T4 construct: nonphosphorylated
T4 sequence (P00519 whole entry F317I): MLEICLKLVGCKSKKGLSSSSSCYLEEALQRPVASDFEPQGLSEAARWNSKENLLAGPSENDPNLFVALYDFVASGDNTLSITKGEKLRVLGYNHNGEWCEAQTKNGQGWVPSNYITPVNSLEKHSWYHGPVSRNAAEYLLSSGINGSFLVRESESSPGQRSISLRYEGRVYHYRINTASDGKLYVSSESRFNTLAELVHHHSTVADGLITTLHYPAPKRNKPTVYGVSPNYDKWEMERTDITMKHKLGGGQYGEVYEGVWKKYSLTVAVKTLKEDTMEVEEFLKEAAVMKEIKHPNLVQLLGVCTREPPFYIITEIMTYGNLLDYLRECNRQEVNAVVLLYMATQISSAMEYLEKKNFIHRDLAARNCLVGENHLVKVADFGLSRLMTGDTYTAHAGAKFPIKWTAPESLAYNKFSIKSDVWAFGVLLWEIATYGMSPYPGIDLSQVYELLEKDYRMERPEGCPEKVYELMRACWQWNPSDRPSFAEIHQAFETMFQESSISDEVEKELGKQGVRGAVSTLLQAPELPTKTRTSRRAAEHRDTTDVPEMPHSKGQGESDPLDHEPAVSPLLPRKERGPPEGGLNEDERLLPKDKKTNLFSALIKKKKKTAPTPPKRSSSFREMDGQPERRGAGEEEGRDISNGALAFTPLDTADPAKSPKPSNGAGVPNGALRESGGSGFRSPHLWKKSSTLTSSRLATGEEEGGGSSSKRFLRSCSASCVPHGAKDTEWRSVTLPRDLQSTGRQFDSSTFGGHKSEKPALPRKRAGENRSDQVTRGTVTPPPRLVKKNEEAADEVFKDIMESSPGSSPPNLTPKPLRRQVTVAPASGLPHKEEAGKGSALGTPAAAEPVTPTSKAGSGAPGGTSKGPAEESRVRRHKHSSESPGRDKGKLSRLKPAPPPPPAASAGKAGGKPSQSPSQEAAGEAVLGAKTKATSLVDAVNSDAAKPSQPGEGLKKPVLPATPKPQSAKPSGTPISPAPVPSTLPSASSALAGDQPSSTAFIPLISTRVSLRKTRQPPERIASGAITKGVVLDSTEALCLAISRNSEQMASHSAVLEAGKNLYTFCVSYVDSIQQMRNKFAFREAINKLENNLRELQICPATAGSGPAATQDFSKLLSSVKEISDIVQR
In short: as §1

YSK1 = target: T5, YSK1 (Homo sapiens, UniProt O00506); conditions: competition binding, % of control; read-out: Percent Control (100 uM Levosimendan)
T5 construct: gene STK25
In short: as §1

WNK3 = WNK3 (Homo sapiens, UniProt Q9BYP7); conditions: competition binding, % of control; read-out: Percent Control (100 uM Levosimendan)
In short: as §1

EPHB6 = EPHB6 (Homo sapiens, UniProt O15197); conditions: competition binding, % of control
Sequence of EPHB6 (O15197 whole entry): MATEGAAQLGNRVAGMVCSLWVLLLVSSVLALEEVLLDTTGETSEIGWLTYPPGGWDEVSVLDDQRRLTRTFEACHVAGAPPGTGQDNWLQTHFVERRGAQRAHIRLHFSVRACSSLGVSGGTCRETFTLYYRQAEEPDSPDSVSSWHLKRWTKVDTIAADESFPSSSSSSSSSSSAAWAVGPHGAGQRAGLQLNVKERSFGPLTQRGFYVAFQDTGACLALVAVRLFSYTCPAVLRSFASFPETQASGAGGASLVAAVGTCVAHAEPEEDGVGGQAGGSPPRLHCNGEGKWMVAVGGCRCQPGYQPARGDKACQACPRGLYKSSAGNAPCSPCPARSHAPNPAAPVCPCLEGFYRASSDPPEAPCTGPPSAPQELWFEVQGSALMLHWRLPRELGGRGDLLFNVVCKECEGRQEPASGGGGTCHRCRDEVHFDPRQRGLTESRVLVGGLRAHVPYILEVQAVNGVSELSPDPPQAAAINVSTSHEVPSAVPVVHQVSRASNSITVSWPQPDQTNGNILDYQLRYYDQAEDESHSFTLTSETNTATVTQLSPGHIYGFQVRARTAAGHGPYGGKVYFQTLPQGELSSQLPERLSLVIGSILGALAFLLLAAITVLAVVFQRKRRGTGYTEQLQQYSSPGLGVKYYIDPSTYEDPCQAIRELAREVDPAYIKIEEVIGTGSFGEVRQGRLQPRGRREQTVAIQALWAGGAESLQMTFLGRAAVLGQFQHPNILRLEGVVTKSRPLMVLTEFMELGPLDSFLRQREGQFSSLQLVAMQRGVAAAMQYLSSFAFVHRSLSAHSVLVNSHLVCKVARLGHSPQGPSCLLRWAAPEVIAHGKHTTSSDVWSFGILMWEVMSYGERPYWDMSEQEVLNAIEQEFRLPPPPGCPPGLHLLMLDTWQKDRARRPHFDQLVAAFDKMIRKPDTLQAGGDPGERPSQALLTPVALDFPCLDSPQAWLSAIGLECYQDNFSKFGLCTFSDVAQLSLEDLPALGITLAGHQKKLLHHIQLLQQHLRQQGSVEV
In short: as §1

GRK7 = GRK7 (Homo sapiens, UniProt Q8WTQ7); conditions: competition binding, % of control; read-out: Percent Control (100 uM Levosimendan)
Sequence of GRK7 (Q8WTQ7 whole entry): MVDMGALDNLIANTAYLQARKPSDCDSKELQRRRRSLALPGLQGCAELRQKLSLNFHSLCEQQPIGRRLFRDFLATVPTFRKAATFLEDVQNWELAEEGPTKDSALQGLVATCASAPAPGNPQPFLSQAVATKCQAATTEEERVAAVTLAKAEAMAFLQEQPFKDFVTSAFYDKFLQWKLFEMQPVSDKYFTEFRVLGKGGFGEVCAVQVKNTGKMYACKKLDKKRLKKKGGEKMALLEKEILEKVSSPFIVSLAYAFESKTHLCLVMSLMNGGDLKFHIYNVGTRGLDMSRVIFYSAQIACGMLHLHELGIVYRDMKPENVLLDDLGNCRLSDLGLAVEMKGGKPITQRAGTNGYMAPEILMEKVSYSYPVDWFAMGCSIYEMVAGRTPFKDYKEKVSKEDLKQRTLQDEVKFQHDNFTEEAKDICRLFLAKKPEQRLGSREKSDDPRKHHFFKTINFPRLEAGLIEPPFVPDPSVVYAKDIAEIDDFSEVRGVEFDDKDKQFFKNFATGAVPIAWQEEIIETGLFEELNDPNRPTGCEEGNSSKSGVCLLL
In short: as §1

CDK4-cyclinD3 = target: T6, CDK4-cyclinD3 (Homo sapiens, UniProt P11802); conditions: competition binding, % of control; read-out: Percent Control (100 uM Levosimendan)
T6 construct: cyclinD3
In short: as §1

RET(V804L) = RET(V804L) (Homo sapiens, UniProt P07949, V804L); conditions: competition binding, % of control; read-out: Percent Control (100 uM Levosimendan)
In short: as §1

PCTK3 = target: T7, PCTK3 (Homo sapiens, UniProt Q07002); conditions: competition binding, % of control; read-out: Percent Control (100 uM Levosimendan)
T7 construct: gene CDK18
In short: as §1

PRKD3 = PRKD3 (Homo sapiens, UniProt O94806); conditions: competition binding, % of control; read-out: Percent Control (100 uM Levosimendan)
In short: as §1

ABL1-nonphosphorylated = target: T8, ABL1-nonphosphorylated (Homo sapiens, UniProt P00519); conditions: competition binding, % of control
T8 construct: nonphosphorylated
T8 sequence (P00519 whole entry): as the sequence (P00519 whole entry F317I) above, with I317F counted along it
In short: as §1

STK39 = STK39 (Homo sapiens, UniProt Q9UEW8); conditions: competition binding, % of control; read-out: Percent Control (100 uM Levosimendan)
In short: as §1

NDR1 = target: T9, NDR1 (Homo sapiens, UniProt Q15208); conditions: competition binding, % of control; read-out: Percent Control (100 uM Levosimendan)
T9 construct: gene STK38
T9 sequence (Q15208 whole entry): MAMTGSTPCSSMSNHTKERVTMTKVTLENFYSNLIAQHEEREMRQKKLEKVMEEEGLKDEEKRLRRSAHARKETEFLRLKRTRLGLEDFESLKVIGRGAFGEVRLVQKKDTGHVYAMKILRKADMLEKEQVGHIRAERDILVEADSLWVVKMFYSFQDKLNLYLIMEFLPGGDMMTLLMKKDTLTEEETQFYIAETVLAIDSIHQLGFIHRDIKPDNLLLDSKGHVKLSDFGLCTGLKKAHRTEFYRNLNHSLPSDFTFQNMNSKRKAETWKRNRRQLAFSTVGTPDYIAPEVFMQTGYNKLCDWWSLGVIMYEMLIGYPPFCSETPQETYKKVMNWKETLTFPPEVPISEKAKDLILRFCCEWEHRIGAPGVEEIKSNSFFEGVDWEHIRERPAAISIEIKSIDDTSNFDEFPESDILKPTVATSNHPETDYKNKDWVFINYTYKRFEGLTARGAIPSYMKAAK
In short: as §1

FER = FER (Homo sapiens, UniProt P16591); conditions: competition binding, % of control; read-out: Percent Control (100 uM Levosimendan)
In short: as §1

[2] = read-out: Percent Control (10 uM Levosimendan)
[3] = read-out: Percent Control (100 uM Levosimendan)

C[C@@H]1CC(=O)NN=C1c1ccc(NN=C(C#N)C#N)cc1 [levosimendan]
remaining binding at 100 µM (MAP3K4): 58%
remaining binding at 100 µM (DMPK2): 70%
remaining binding at 100 µM (TRPM6): 89%
remaining binding at 100 µM (JNK2): 100%
remaining binding at 100 µM (ADCK3): 57%
remaining binding at 100 µM (EPHA5): 100%
remaining binding at 100 µM [1]: 100%
remaining binding at 100 µM (YSK1): 100%
remaining binding at 100 µM (WNK3): 81%
remaining binding at 10 µM (EPHB6; [2]): 56%
remaining binding at 100 µM (EPHB6; [3]): 16%
remaining binding at 100 µM (GRK7): 100%
remaining binding at 100 µM (CDK4-cyclinD3): 100%
remaining binding at 100 µM (RET(V804L)): 92%
remaining binding at 100 µM (PCTK3): 100%
remaining binding at 100 µM (PRKD3): 100%
remaining binding at 10 µM (ABL1-nonphosphorylated; [2]): 94%
remaining binding at 100 µM (ABL1-nonphosphorylated; [3]): 49%
remaining binding at 100 µM (STK39): 100%
remaining binding at 100 µM (NDR1): 62%
remaining binding at 100 µM (FER): 100%
